Test results published in article PMC5362750, “Discovery of Potent, Selective, and Orally Bioavailable Small-Molecule Modulators of the Mediator Complex-Associated Kinases CDK8 and CDK19” (Journal of Medicinal Chemistry, 2016).

Experiments:
MINK = target: T1, MINK (Homo sapiens, UniProt Q8N4C8); experiment: Kinase panel (Millipore); type: biochemical; settings: 1 µM, ATP at Km
T1 construct: purchased Millipore (KinaseProfiler) kinase panel

AT2 (h) = target: T2, AT2 (h) (Homo sapiens, UniProt P50052); experiment: CEREP binding assay; settings: agonist radioligand, read-out: % Inhibition of Control Specific Binding
T2 construct: purchased Millipore (KinaseProfiler) kinase panel

CAMKIV = CAMKIV (Homo sapiens, UniProt Q16566); experiment: Kinase panel (Millipore); type: biochemical; settings: 1 µM, ATP at Km
IKKBETA = target: T3, IKKBETA (Homo sapiens, UniProt O14920); experiment: Kinase panel (Millipore); type: biochemical; settings: 1 µM, ATP at Km
T3 construct: purchased Millipore (KinaseProfiler) kinase panel

RET(V804M) = RET(V804M) (Homo sapiens, UniProt P07949, V804M); settings: 1 µM, ATP at Km
FMS(Y969C) = FMS(Y969C) (Homo sapiens, UniProt P07333, Y969C); settings: 1 µM, ATP at Km
GRK6 = target: T4, GRK6 (Homo sapiens, UniProt P43250); experiment: Kinase panel (Millipore); type: biochemical; settings: 1 µM, ATP at Km
T4 construct: purchased Millipore (KinaseProfiler) kinase panel

GABAB(1b) (h) = GABAB(1b) (h) (Homo sapiens, UniProt Q9UBS5); experiment: biochemical; settings: read-out: % Inhibition of Control Specific Binding
CAMKIIDELTA = CAMKIIDELTA (Homo sapiens, UniProt Q13557); experiment: Kinase panel (Millipore); type: biochemical; settings: 1 µM, ATP at Km
IR = target: T5, IR (Homo sapiens, UniProt P06213); experiment: Kinase panel (Millipore); type: biochemical; settings: 1 µM, ATP at Km
T5 construct: purchased Millipore (KinaseProfiler) kinase panel

AXL = target: T6, AXL (Homo sapiens, UniProt P30530); experiment: Kinase panel (Millipore); type: biochemical; settings: 1 µM, ATP at Km
T6 construct: purchased Millipore (KinaseProfiler) kinase panel

RY3 (ryanodine) = settings: 10 µM, agonist radioligand
CDK2/CYCLINA = CDK2/CYCLINA (Homo sapiens, UniProt P24941); settings: 1 µM, ATP at Km
LOK = target: T7, LOK (Homo sapiens, UniProt O94804); experiment: Kinase panel (Millipore); type: biochemical; settings: 1 µM, ATP at Km
T7 construct: purchased Millipore (KinaseProfiler) kinase panel

MKK7BETA = target: T8, MKK7BETA (Homo sapiens, UniProt O14733); experiment: Kinase panel (Millipore); type: biochemical; settings: 1 µM, ATP at Km
T8 construct: purchased Millipore (KinaseProfiler) kinase panel

GSK3ALPHA = GSK3ALPHA (Homo sapiens, UniProt P49840); experiment: Kinase panel (Millipore); type: biochemical; settings: 1 µM, ATP at Km
FGFR4 = FGFR4 (Homo sapiens, UniProt P22455); experiment: Kinase panel (Millipore); type: biochemical; settings: 1 µM, ATP at Km
LIMK1 = LIMK1 (Homo sapiens, UniProt P53667); experiment: Kinase panel (Millipore); type: biochemical; settings: 1 µM, ATP at Km
WNK2 = target: T9, WNK2 (Homo sapiens, UniProt Q9Y3S1); experiment: Kinase panel (Millipore); type: biochemical; settings: 1 µM, ATP at Km
T9 construct: purchased Millipore (KinaseProfiler) kinase panel

TRKA = target: T10, TRKA (Homo sapiens, UniProt P04629); experiment: Kinase panel (Millipore); type: biochemical; settings: 1 µM, ATP at Km
T10 construct: purchased Millipore (KinaseProfiler) kinase panel

[1] = male, Wistar, rat, in vivo
H3 (h) = target: T11, H3 (h) (Homo sapiens, UniProt Q9Y5N1); experiment: CEREP binding assay; settings: agonist radioligand, read-out: % Inhibition of Control Specific Binding
T11 construct: purchased Millipore (KinaseProfiler) kinase panel

PAF (h) = target: T12, PAF (h) (Homo sapiens, UniProt P25105); experiment: CEREP binding assay; settings: agonist radioligand, read-out: % Inhibition of Control Specific Binding
T12 construct: purchased Millipore (KinaseProfiler) kinase panel

EPHB1 = target: T13, EPHB1 (Homo sapiens, UniProt P54762); experiment: Kinase panel (Millipore); type: biochemical; settings: 1 µM, ATP at Km
T13 construct: purchased Millipore (KinaseProfiler) kinase panel

RSK1 = target: T14, RSK1 (Homo sapiens, UniProt Q15418); experiment: Kinase panel (Millipore); type: biochemical; settings: 1 µM, ATP at Km
T14 construct: purchased Millipore (KinaseProfiler) kinase panel

MER = target: T15, MER (Homo sapiens, UniProt Q12866); experiment: Kinase panel (Millipore); type: biochemical; settings: 1 µM, ATP at Km
T15 construct: purchased Millipore (KinaseProfiler) kinase panel

GRK5 = target: T16, GRK5 (Homo sapiens, UniProt P34947); experiment: Kinase panel (Millipore); type: biochemical; settings: 1 µM, ATP at Km
T16 construct: purchased Millipore (KinaseProfiler) kinase panel

HIPK2 = target: T17, HIPK2 (Homo sapiens, UniProt Q9H2X6); experiment: Kinase panel (Millipore); type: biochemical; settings: 1 µM, ATP at Km
T17 construct: purchased Millipore (KinaseProfiler) kinase panel

sst1 (h) = sst1 (h) (Homo sapiens, UniProt P30872); experiment: CEREP binding assay; settings: agonist radioligand, read-out: % Inhibition of Control Specific Binding
[2] = tested on: Ca2+ channel (L, dihydropyridine site); settings: 10 µM, antagonist radioligand
[…](D842V) = […](D842V) (Homo sapiens, UniProt P16234, D842V); settings: 1 µM, ATP at Km
DAPK2 = DAPK2 (Homo sapiens, UniProt Q9UIK4); experiment: Kinase panel (Millipore); type: biochemical; settings: 1 µM, ATP at Km
ABL(Y253F) = ABL(Y253F) (Homo sapiens, UniProt P00519, Y253F); settings: 1 µM, ATP at Km
in vivo [3] = settings: female, dog, 0.2 mg/kg
NK1 (h) = NK1 (h) (Homo sapiens, UniProt P25103); experiment: CEREP binding assay; settings: agonist radioligand, read-out: % Inhibition of Control Specific Binding
in vivo [4] = settings: male, rat, 0.2 mg/kg
JNK1ALPHA1 = JNK1ALPHA1 (Homo sapiens, UniProt P45983); experiment: Kinase panel (Millipore); type: biochemical; settings: 1 µM, ATP at Km
TAK1 = target: T18, TAK1 (Homo sapiens, UniProt O43318); experiment: Kinase panel (Millipore); type: biochemical; settings: 1 µM, ATP at Km
T18 construct: purchased Millipore (KinaseProfiler) kinase panel

EPHA2 = EPHA2 (Homo sapiens, UniProt P29317); experiment: Kinase panel (Millipore); type: biochemical; settings: 1 µM, ATP at Km
FYN = FYN (Homo sapiens, UniProt P06241); experiment: Kinase panel (Millipore); type: biochemical; settings: 1 µM, ATP at Km
TXK = target: T19, TXK (Homo sapiens, UniProt P42681); experiment: Kinase panel (Millipore); type: biochemical; settings: 1 µM, ATP at Km
T19 construct: purchased Millipore (KinaseProfiler) kinase panel

CKIT(V654A) = CKIT(V654A) (Homo sapiens, UniProt P10721, V654A); settings: 1 µM, ATP at Km
In vivo mouse PK = settings: female, NMRI, plasma, iv, 0.2 mg/kg

CKIT(V654A), sequence (P10721 544-976 V654A limits assumed): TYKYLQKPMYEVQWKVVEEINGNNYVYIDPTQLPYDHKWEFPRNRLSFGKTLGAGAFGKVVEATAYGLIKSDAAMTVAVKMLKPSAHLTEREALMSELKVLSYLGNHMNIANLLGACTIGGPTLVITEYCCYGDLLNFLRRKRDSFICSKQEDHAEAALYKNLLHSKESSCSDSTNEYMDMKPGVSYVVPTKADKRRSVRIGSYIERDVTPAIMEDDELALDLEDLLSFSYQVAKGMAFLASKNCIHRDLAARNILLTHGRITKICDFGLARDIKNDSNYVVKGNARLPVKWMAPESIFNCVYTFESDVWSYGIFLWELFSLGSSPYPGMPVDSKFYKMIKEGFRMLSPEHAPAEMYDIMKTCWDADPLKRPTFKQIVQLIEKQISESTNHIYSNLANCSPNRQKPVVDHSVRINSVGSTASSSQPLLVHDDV
FYN, sequence (P06241 whole entry): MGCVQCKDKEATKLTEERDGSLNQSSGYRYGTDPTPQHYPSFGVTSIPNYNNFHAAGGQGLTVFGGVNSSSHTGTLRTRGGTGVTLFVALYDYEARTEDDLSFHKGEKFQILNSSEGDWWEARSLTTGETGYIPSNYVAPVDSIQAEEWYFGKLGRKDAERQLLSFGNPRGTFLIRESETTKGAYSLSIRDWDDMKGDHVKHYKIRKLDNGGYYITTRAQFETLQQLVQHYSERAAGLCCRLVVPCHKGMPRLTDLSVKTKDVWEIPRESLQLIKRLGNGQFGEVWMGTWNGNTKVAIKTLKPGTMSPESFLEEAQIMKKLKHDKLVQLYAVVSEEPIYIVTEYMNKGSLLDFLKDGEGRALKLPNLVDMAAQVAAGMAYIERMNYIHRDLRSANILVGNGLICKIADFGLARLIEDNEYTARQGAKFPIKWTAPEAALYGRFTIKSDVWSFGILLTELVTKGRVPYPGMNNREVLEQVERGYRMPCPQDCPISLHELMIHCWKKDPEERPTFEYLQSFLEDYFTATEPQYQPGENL
T10 sequence (P04629 33-796): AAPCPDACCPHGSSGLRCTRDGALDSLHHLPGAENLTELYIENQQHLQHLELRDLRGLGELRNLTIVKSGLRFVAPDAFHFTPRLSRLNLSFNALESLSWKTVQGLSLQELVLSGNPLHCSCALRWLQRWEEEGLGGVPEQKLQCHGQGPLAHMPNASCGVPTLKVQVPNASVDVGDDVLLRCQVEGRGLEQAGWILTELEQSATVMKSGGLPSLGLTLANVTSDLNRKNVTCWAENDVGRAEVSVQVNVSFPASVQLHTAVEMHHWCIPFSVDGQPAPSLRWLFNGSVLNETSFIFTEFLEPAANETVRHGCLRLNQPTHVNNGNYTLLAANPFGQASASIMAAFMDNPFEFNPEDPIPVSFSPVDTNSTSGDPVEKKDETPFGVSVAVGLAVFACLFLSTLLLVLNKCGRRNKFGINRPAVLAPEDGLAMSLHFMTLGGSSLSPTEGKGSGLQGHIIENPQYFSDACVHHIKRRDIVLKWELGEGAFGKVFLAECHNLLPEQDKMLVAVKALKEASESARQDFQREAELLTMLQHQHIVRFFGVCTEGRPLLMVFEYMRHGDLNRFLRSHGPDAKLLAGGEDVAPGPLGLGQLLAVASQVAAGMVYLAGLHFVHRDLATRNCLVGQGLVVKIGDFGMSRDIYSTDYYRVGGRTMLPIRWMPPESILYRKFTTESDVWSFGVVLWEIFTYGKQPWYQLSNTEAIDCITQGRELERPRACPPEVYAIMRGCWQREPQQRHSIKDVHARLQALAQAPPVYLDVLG
FMS(Y969C), sequence (P07333 20-972 Y969C, species assumed): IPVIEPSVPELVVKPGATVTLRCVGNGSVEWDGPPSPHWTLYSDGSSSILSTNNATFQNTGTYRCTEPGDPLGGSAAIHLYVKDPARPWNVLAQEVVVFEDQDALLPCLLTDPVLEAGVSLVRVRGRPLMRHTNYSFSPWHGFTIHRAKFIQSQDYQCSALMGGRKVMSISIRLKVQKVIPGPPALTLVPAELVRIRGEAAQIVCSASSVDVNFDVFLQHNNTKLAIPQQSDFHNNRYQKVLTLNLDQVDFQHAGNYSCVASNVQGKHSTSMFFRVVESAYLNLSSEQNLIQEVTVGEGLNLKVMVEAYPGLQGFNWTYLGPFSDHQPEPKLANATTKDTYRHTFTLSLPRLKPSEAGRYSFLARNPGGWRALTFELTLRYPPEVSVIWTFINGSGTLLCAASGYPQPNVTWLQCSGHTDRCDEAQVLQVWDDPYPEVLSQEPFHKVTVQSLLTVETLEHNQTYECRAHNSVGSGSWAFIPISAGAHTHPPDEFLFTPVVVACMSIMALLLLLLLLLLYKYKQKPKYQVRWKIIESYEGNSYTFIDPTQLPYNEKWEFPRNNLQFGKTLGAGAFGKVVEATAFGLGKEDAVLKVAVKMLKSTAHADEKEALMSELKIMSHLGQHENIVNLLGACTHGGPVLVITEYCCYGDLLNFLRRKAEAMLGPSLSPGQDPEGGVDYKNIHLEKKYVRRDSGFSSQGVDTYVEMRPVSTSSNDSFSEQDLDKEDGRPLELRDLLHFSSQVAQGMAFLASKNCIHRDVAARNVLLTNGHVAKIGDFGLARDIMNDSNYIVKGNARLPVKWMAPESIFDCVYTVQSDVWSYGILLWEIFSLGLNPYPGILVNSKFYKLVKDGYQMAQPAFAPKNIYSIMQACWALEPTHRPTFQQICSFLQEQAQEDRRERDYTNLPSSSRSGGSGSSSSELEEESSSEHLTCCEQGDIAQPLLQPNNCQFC
EPHA2, sequence (P29317 24-976): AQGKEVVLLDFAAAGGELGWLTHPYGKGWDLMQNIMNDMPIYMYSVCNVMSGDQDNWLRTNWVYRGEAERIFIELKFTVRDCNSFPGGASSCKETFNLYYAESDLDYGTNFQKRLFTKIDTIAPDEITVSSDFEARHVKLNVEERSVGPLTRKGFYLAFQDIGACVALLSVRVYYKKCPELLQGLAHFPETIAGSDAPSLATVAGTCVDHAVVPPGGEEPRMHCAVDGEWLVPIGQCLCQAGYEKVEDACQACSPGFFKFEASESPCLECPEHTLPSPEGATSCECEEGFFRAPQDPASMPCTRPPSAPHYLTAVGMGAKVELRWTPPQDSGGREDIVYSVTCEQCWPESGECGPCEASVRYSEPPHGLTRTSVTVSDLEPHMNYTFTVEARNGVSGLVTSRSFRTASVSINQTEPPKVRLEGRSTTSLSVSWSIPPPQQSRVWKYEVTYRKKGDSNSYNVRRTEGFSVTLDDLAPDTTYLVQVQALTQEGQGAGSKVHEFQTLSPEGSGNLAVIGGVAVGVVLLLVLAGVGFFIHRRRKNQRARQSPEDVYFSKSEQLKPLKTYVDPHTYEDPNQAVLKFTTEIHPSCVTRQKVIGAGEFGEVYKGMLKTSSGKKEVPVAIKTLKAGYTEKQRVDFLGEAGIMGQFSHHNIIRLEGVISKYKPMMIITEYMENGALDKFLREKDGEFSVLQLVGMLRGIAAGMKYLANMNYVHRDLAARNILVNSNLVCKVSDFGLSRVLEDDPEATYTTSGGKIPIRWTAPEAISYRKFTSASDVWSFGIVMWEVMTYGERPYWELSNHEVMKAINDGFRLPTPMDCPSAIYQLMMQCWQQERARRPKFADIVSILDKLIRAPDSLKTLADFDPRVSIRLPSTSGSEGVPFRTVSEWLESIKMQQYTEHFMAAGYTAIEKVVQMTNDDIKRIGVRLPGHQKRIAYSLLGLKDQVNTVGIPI
T18 sequence (O43318 1-303 limits assumed): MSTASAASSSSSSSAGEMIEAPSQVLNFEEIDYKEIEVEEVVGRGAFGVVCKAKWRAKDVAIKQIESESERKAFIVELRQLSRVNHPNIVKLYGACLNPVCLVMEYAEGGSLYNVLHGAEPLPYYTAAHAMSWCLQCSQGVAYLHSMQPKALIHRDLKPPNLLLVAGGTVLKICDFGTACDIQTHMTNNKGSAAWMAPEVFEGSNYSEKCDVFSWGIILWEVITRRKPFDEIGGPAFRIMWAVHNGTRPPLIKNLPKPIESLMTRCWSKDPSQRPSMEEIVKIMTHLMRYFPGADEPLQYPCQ
T3 sequence (O14920 whole entry): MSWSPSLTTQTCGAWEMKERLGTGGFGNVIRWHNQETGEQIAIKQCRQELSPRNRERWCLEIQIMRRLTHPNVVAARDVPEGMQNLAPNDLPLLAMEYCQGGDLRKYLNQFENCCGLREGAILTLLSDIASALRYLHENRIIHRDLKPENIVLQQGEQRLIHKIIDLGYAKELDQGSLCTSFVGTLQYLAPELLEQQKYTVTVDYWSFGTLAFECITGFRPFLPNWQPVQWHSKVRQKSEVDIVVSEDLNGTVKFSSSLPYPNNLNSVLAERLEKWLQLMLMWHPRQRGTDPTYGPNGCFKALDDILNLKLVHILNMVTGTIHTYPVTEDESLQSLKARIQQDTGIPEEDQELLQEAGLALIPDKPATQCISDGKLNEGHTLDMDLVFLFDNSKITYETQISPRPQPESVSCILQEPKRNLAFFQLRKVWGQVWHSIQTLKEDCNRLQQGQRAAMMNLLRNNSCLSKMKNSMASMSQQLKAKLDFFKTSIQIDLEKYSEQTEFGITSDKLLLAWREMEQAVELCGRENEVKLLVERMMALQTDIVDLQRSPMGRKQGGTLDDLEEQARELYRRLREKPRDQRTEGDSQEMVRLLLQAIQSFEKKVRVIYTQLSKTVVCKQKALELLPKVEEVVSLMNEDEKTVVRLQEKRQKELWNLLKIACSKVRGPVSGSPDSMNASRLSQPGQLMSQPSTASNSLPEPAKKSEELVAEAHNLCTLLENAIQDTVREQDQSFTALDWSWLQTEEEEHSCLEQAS
T12 sequence (P25105 whole entry): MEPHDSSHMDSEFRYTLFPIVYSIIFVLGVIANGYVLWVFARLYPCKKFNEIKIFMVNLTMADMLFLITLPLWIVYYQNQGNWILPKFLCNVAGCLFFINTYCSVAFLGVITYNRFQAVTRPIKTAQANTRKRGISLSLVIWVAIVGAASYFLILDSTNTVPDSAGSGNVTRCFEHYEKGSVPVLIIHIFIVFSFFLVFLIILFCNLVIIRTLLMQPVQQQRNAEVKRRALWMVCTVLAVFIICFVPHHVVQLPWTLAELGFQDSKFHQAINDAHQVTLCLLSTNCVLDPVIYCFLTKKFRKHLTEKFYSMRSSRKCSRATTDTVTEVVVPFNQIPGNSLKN

Cn1ncc2cc(-c3cnc(N)c(Cl)c3N3CCC4(CCNC4=O)CC3)ccc21 [Compound 109, 8-(2-Amino-3-chloro-5-(1-methyl-1H-indazol-5-yl)pyridin-4-yl)-2,8-diazaspiro[4.5]decan-1-one]
% effect (MINK): 22%
inhibition at 10 µM (AT2 (h)): 6%
% effect (CAMKIV): 14%
% effect (IKKBETA): -2%
% effect (RET(V804M)): 6%
% effect (FMS(Y969C)): -43%
% effect (GRK6): 5%
inhibition at 10 µM (GABAB(1b) (h)): 2%
% effect (CAMKIIDELTA): 7%
% effect (IR): -5%
% effect (AXL): -4%
% Inhibition of Control Specific Binding (RY3 (ryanodine)): 1%
% effect (CDK2/CYCLINA): 1%
% effect (LOK): 11%
% effect (MKK7BETA): -15%
% effect (GSK3ALPHA): -18%
% effect (FGFR4): 6%
% effect (LIMK1): -13%
% effect (WNK2): 27%
% effect (TRKA): 2%
LBF [1]: 34%
inhibition at 10 µM (H3 (h)): 3%
inhibition at 10 µM (PAF (h)): -4%
% effect (EPHB1): 3%
% effect (RSK1): 13%
% effect (MER): 11%
% effect (GRK5): 7%
% effect (HIPK2): 2%
inhibition at 10 µM (sst1 (h)): -4%
% Inhibition of Control Specific Binding [2]: -16%
% effect ([…](D842V)): -10%
% effect (DAPK2): -7%
% effect (ABL(Y253F)): 1%
Vd (in vivo [3]): 1.4 L/kg
clearance (in vivo [3]; iv): 1.07 L/h/kg
inhibition at 10 µM (NK1 (h)): 25%
Vd (in vivo [4]): 2 L/kg
clearance (in vivo [4]; iv): 1.49 L/h/kg
% effect (JNK1ALPHA1): -6%
% effect (TAK1): -14%
% effect (EPHA2): 5%
% effect (FYN): 23%
% effect (TXK): -5%
% effect (CKIT(V654A)): 9%
Vd (In vivo mouse PK): 0.63 L/kg
clearance (In vivo mouse PK; Cl, 0.2 mg/kg iv): 0.61 L/h/kg
